The structures appear in SMILES notation. Like-named read-outs stand apart in the source and are kept apart here.

Assay [1] deals with T1, recombinant human PAI-1 (Homo sapiens, UniProt P05121). In words: Test Example 2: Human PAI-1 Inhibitory Activity (pH 7.4 HEPES buffer, 10 minutes incubation with two-chain tPA). The note with it: read-out: Inhibition Rate of PAI-1 Activity (%). Type of assay: biochemical. Further details: purchased Molecular Innovations, Inc. Here is the method:
0.1 M HEPES, 0.1 M NaCl. 1 mM EDTA. 0.1 % Polyethylene glycol 8,000 (Hampton Research Corporation),
2 mM Dimethyldecylphoshine oxide [Apo-10] (Fluka Corporation)

The target in assay [2] is T1, recombinant human PAI-1. Put plainly: biochemical.
A further assay has as its target T2, recombinant rat PAI-1 (Rattus norvegicus, UniProt P20961).
T2 sequence (P20961 24-402): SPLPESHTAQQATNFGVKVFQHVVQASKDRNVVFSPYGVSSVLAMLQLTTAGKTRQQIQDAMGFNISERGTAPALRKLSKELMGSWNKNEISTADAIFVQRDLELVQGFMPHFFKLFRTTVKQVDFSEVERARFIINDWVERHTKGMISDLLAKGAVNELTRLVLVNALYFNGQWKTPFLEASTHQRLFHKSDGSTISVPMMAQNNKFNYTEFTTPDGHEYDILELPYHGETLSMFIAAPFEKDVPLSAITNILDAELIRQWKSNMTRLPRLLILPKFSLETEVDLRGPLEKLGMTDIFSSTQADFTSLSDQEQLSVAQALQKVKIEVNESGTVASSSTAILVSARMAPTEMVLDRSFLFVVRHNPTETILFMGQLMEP
Put plainly: biochemical. The note with it: read-out: Inhibition Rate of PAI-1 Activity (%).

Setting [3] is: read-out: Inhibition Rate of PAI-1 Activity (%), Compound Concentration 5µM.
The mark [4] stands for this setting: read-out: Inhibition Rate of PAI-1 Activity (%), Compound Concentration 10µM.
Where [5] appears, read: read-out: Inhibition Rate of PAI-1 Activity (%), Compound Concentration 25µM.
The mark [6] stands for this setting: read-out: Inhibition Rate of PAI-1 Activity (%).

T1 sequence (P05121 24-402): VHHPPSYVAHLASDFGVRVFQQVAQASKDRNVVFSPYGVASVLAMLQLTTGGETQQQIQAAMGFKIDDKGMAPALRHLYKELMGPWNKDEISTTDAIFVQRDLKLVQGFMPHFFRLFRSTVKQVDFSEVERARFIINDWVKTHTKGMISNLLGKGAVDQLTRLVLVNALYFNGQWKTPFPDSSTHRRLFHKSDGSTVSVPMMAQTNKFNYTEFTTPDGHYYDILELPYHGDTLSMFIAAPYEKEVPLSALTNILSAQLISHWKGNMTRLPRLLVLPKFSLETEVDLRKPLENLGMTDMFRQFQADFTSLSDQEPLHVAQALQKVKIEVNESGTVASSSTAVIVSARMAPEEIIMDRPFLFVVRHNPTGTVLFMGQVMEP

With `CC(C)(C)c1ccc(COc2ccc(-c3ccc(OC(F)(F)F)cc3)cc2CC(=O)O)cc1` [Compound 9], at recombinant human PAI-1 [1], the inhibition at 0.1 µM amounted to 0%, the inhibition at 0.3 µM stood at 6%, the inhibition at 1 µM amounted to 25% and the inhibition at 3 µM turned out to be 98%. Moreover, the inhibition at 5 µM at recombinant human PAI-1 [2] (read-out: Inhibition Rate of PAI Activity (%), Compound Concentration 5µM) came to 90%. In addition, on recombinant human PAI-1 [2] (read-out: Inhibition Rate of PAI Activity (%), Compound Concentration 10µM), the inhibition at 10 µM was determined as 99%. Also, on recombinant rat PAI-1, the inhibition at 0.3 µM was 0%, the inhibition at 1 µM is 15%, the inhibition at 3 µM came to 71% and the inhibition at 10 µM stood at 96%.

Regarding `CC(C)c1ccc(Oc2ccc(CCC(=O)O)c(Oc3ccc(C(C)C)cc3)c2)cc1` [Compound 73], at recombinant human PAI-1 [1], the inhibition at 0.1 µM came to 0%, the inhibition at 0.3 µM worked out at 6%, the inhibition at 1 µM amounted to 27% and the inhibition at 3 µM was found to be 98%. For the same compound, at recombinant human PAI-1 [2] (setting [3]), the inhibition at 5 µM amounted to 30%. The inhibition at 10 µM on recombinant human PAI-1 [2] (setting [4]) was 66%. In addition, the inhibition at 25 µM on recombinant human PAI-1 [2] (setting [5]) was over 99%. Besides, on recombinant rat PAI-1, the inhibition at 0.3 µM amounted to 0%, the inhibition at 1 µM came to 13%, the inhibition at 3 µM was 75% and the inhibition at 10 µM is 98%.

For `CC(C)(C)c1ccc(COc2cc(-c3ccc(OC(F)(F)F)cc3)ccc2CCC(=O)O)cc1` [Compound 76], at recombinant human PAI-1 [1], the inhibition at 0.1 µM is 10%, the inhibition at 0.3 µM came to 12%, the inhibition at 1 µM worked out at 37% and the inhibition at 3 µM came out at 99%. At recombinant human PAI-1 [2] (setting [6]), the inhibition at 5 µM is 24%, the inhibition at 10 µM was 54% and the inhibition at 25 µM turned out to be 98%. Also, at recombinant rat PAI-1, the inhibition at 0.3 µM is 0%, the inhibition at 1 µM turned out to be 6%, the inhibition at 3 µM worked out at 56% and the inhibition at 10 µM was 86%.

In the case of `CC(C)(C)c1ccc(COc2cccc(Oc3ccc(OC(F)(F)F)cc3)c2CCC(=O)O)cc1` [Compound 86], on recombinant human PAI-1 [1], the inhibition at 0.1 µM turned out to be 0%, the inhibition at 0.3 µM amounted to 0%, the inhibition at 1 µM was 22% and the inhibition at 3 µM amounted to 87%. Moreover, the inhibition at 5 µM at recombinant human PAI-1 [2] (setting [3]) amounted to 47%. Also, the inhibition at 10 µM at recombinant human PAI-1 [2] (setting [4]) is 80%. Besides, the inhibition at 25 µM at recombinant human PAI-1 [2] (setting [5]) turned out to be 98%. On recombinant rat PAI-1, the inhibition at 0.3 µM was 0%, the inhibition at 1 µM is 12%, the inhibition at 3 µM was found to be 34% and the inhibition at 10 µM worked out at 69%.

As for `CC(C)(C)c1ccc(COc2c(CCC(=O)O)cccc2-c2ccc(OC(F)(F)F)cc2)cc1` [Compound 88], on recombinant human PAI-1 [1], the inhibition at 0.1 µM was found to be 0%, the inhibition at 0.3 µM came to 5%, the inhibition at 1 µM turned out to be 25% and the inhibition at 3 µM turned out to be 97%. In addition, on recombinant human PAI-1 [2] (setting [6]), the inhibition at 5 µM worked out at 42%, the inhibition at 10 µM was found to be 83% and the inhibition at 25 µM is 97%. At recombinant rat PAI-1, the inhibition at 0.3 µM was found to be 0%, the inhibition at 1 µM was 0%, the inhibition at 3 µM was found to be 51% and the inhibition at 10 µM is 83%.

Take `CC(C)(C)c1ccc(Oc2cccc(-c3ccc(OC(F)(F)F)cc3)c2CCC(=O)O)cc1` [Compound 94]: at recombinant human PAI-1 [1], the inhibition at 0.1 µM is 0%, the inhibition at 0.3 µM was determined as 3%, the inhibition at 1 µM is 24% and the inhibition at 3 µM stood at 96%. The inhibition at 5 µM at recombinant human PAI-1 [2] (setting [3]) is 56%. In addition, the inhibition at 10 µM at recombinant human PAI-1 [2] (setting [4]) worked out at 90%. Moreover, the inhibition at 25 µM on recombinant human PAI-1 [2] (setting [5]) came out at 97%. Moreover, on recombinant rat PAI-1, the inhibition at 0.3 µM is 0%, the inhibition at 1 µM was 15%, the inhibition at 3 µM was determined as 45% and the inhibition at 10 µM worked out at 91%.

As for `CC(C)(C)c1ccc(COc2ccc(Oc3ccc(OC(F)(F)F)cc3)cc2CCC(=O)O)cc1` [Compound 96], at recombinant human PAI-1 [1], the inhibition at 0.1 µM was 6%, the inhibition at 0.3 µM is 7%, the inhibition at 1 µM turned out to be 26% and the inhibition at 3 µM is 96%. The inhibition at 5 µM on recombinant human PAI-1 [2] (setting [3]) came to 36%. For the same compound, on recombinant human PAI-1 [2] (setting [4]), the inhibition at 10 µM came out at 75%. Also, on recombinant human PAI-1 [2] (setting [5]), the inhibition at 25 µM was determined as 99%. Further, at recombinant rat PAI-1, the inhibition at 0.3 µM was found to be 3%, the inhibition at 1 µM came to 14%, the inhibition at 3 µM was 49% and the inhibition at 10 µM worked out at 96%.

As for `O=C(O)CCc1c(Oc2ccc(OC(F)(F)F)cc2)cccc1Oc1ccc(OC(F)(F)F)cc1` [Compound 98], on recombinant human PAI-1 [1], the inhibition at 0.1 µM was 0%, the inhibition at 0.3 µM worked out at 2%, the inhibition at 1 µM was 25% and the inhibition at 3 µM came out at 84%. The inhibition at 5 µM on recombinant human PAI-1 [2] (setting [3]) amounted to 57%. In addition, at recombinant human PAI-1 [2] (setting [4]), the inhibition at 10 µM was determined as 84%. Also, on recombinant human PAI-1 [2] (setting [5]), the inhibition at 25 µM amounted to 98%. On recombinant rat PAI-1, the inhibition at 0.3 µM was 0%, the inhibition at 1 µM worked out at 10%, the inhibition at 3 µM was determined as 39% and the inhibition at 10 µM turned out to be 95%.

As to `CC(C)(Oc1c(Oc2ccc(C(C)(C)C)cc2)cccc1-c1ccc(OC(F)(F)F)cc1)C(=O)O` [Compound 251], on recombinant human PAI-1 [1], the inhibition at 0.1 µM was 0%, the inhibition at 0.3 µM was found to be 11%, the inhibition at 1 µM was 34% and the inhibition at 3 µM was 83%. The inhibition at 5 µM on recombinant human PAI-1 [2] (setting [3]) was found to be 62%. The inhibition at 10 µM at recombinant human PAI-1 [2] (setting [4]) is 63%.

Consider `CC(C)(C)c1ccc(CN(C(=O)C(=O)O)c2ccc(OCc3ccc(OC(F)(F)F)cc3)c(OCc3ccc(OC(F)(F)F)cc3)c2)cc1` [Compound 622], for which, at recombinant human PAI-1 [2] (setting [6]), the inhibition at 5 µM came out at 44%, the inhibition at 10 µM turned out to be 72% and the inhibition at 25 µM amounted to 88%.

On to `CN(C(=O)C(=O)O)c1ccc(OCc2ccc(OC(F)(F)F)cc2)c(OCc2ccc(OC(F)(F)F)cc2)c1` [Compound 623], for which, on recombinant human PAI-1 [2] (setting [6]), the inhibition at 5 µM is 22%, the inhibition at 10 µM amounted to 41% and the inhibition at 25 µM was determined as 87%.

`Cc1ccc(N(Cc2ccc(C(C)(C)C)cc2)C(=O)C(=O)O)cc1OCc1ccc(OC(F)(F)F)cc1` [Compound 625]: at recombinant human PAI-1 [2] (setting [6]), the inhibition at 5 µM turned out to be 59%, the inhibition at 10 µM was found to be 92% and the inhibition at 25 µM was 91%.

With `CC(C)(C)c1ccc(CN(C(=O)C(=O)O)c2ccc(Nc3ccc(OC(F)(F)F)cc3)cc2)cc1` [Compound 626], at recombinant human PAI-1 [2] (setting [6]), the inhibition at 5 µM was 42%, the inhibition at 10 µM was 77% and the inhibition at 25 µM is 97%.

`CC(C)(C)c1ccc(CN(C(=O)C(=O)O)c2ccc(Cl)c(OCc3ccc(OC(F)(F)F)cc3)c2)cc1` [Compound 629]: at recombinant human PAI-1 [2] (setting [6]), the inhibition at 5 µM is 62%, the inhibition at 10 µM was determined as 92% and the inhibition at 25 µM was 88%.

As for `CC(C)(C)c1ccc(CN(C(=O)C(=O)O)c2ccc(SCc3ccc(OC(F)(F)F)cc3)cc2)cc1` [Compound 630], at recombinant human PAI-1 [2] (setting [6]), the inhibition at 5 µM was determined as 56%, the inhibition at 10 µM was determined as 89% and the inhibition at 25 µM was 88%.

As for `CC(C)(C)c1ccc(CN(C(=O)C(=O)O)c2ccccc2Sc2ccc(OC(F)(F)F)cc2)cc1` [Compound 631], at recombinant human PAI-1 [2] (setting [6]), the inhibition at 5 µM is 58%, the inhibition at 10 µM worked out at 86% and the inhibition at 25 µM is 86%.

These data come from patent EP2272817A1, “PAI-1 INHIBITOR” (Institute of Medicinal Molecular Design, Inc., priority 2008, dated 2009).
